Experimental data: patent US20170210757A1 (ALFA WASSERMANN S.P.A., priority 2003, published 2017)
Read-outs that look alike come from different tables or passages of the source. One block for each compound: values may come before it.

What was measured:
[1] = Bioavailability in dogs by oral route (plasma rifaximin by LC-MS/MS); type: in vivo, Beagle female dogs
Method: Twelve 20 week pure-bred Beagle females dogs, and weighing between 5.0 and 7.5 kg, have been divided into three groups of four.
Each sample was transferred into an heparinized tube and was centrifuged; the plasma was divided into 50μl two aliquots and frozen at −20° C.
Tmax=time at which the Cmax is reached;
AUC=area under the concentration-time curve calculated through the linear trapezoidal rule.

[2] = Intrinsic dissolution test (USP 27 monograph 1087); type: physicochemical
Text: The die-holder containing the compacted pellet has then been mounted on a laboratory stirring device, immersed in a dissolution medium and rotated by means of the stirring device.
A compacted pellet was formed in the die with a single face of defined area exposed on the bottom of the die so that from 50% to 75% of the compacted pellet could dissolve in an appropriate dissolution medium.
The holder containing the die was mounted on a laboratory stirring device, immersed in a glass vessel containing a dissolution medium and rotated at a rotation speed of 100 rpm by means of the stirring device, while keeping the temperature of the dissolution medium at 37±0.5° C. […]

[3] = Hygroscopicity and humidity-dependent transition between polymorphic forms; type: physicochemical; settings: for hygroscopicity: reversibly absorb water under suitable conditions of pressure and humidity
Text: Both the form γ and the forms α and β of rifaximin are hygroscopic, they reversibly absorb water in time in the presence of suitable environmental conditions of pressure and humidity and are susceptible of transformation from one form into another.

[4] = single oral administration of 100 mg/kg by capsules to female dogs, plasma, listed as Polimorph β, 100 mg/kg
[5] = single oral administration of 100 mg/kg by capsules to female dogs, plasma, listed as Polimorph γ, 100 mg/kg
[6] = single oral administration of 100 mg/kg by capsules to female dogs, plasma, listed as Polimorph α, 100 mg/kg

AUC0-24 h (summary embodiment) ([1]; pharmaceutical composition comprising the polymorphic form, conditions not stated, listed as rifaximin in polymorphic form β): about 11 ng·h/ml
AUC0-24 Mean [1, 4]: 11 ng·h/mL
tmax Mean [1, 4]: 4 h
Intrinsic dissolution rate ([2]; 0.1M aqueous phosphate buffer pH 7.4 with 0.45% sodium lauryl sulfate, 37°C, listed as β polymorph): 0.0147 mg/min/cm^2
Rifaximin dissolved ([2]; 15 min, 0.1M aqueous phosphate buffer pH 7.4 with 0.45% sodium lauryl sulfate, 37°C, listed as β polymorph): 0.28 mg/cm^2
Rifaximin dissolved ([2]; 30 min, 0.1M aqueous phosphate buffer pH 7.4 with 0.45% sodium lauryl sulfate, 37°C, listed as β polymorph): 0.50 mg/cm^2
Rifaximin dissolved ([2]; 45 min, 0.1M aqueous phosphate buffer pH 7.4 with 0.45% sodium lauryl sulfate, 37°C, listed as β polymorph): 0.71 mg/cm^2
Rifaximin dissolved ([2]; 60 min, 0.1M aqueous phosphate buffer pH 7.4 with 0.45% sodium lauryl sulfate, 37°C, listed as β polymorph): 0.94 mg/cm^2
intrinsic dissolution rate (summary embodiment) ([2]; pharmaceutical composition comprising the polymorphic form, conditions not stated): about 0.01 mg/min/cm^2
hygroscopicity [3]: hygroscopic
Structure (SMILES): CO[C@H]1/C=C/O[C@@]2(C)Oc3c(C)c(O)c4c(O)c(c5c(nc6cc(C)ccn65)c4c3C2=O)NC(=O)/C(C)=C\C=C\[C@H](C)[C@H](O)[C@@H](C)[C@@H](O)[C@@H](C)[C@H](OC(C)=O)[C@@H]1C [rifaximin β, rifaximin]

Cmax ([1]; female, Beagle, dog, plasma, po, 100 mg/kg, oral 100 mg/kg, Beagle female dogs, read-out: Cmax): 668 ng/mL
absorption in respect of rifaximin α and rifaximin β ([1]; oral 100 mg/kg, Beagle female dogs): more than 102 times
AUC0-24 h (summary embodiment) ([1]; pharmaceutical composition comprising the polymorphic form, conditions not stated, listed as rifaximin in polymorphic form γ): about 4000 ng·h/ml
AUC0-24 Mean [1, 5]: 3908 ng·h/mL
Cmax Mean [1, 5]: 668.22 ng/mL
hygroscopicity [3]: hygroscopic
Structure (SMILES): CO[C@H]1/C=C/O[C@@]2(C)Oc3c(C)c(O)c4c(O)c(c5c(nc6cc(C)ccn65)c4c3C2=O)NC(=O)/C(C)=C\C=C\[C@H](C)[C@H](O)[C@@H](C)[C@@H](O)[C@@H](C)[C@H](OC(C)=O)[C@@H]1C [rifaximin γ, rifaximin]

Cmax ([1]; Beagle, dog, plasma, oral, 100 mg/kg, pharmaceutical composition comprising the polymorphic form, conditions not stated, read-out: Cmax (summary embodiment)): ~2 ng/mL
Tmax ([1]; female, Beagle, dog, plasma, po, 100 mg/kg, single oral administration of 100 mg/kg by capsules to female dogs): 9.5 h
AUC0-24 h (summary embodiment) ([1]; pharmaceutical composition comprising the polymorphic form, conditions not stated, listed as rifaximin in polymorphic form α): about 13 ng·h/ml
AUC0-24 Mean [1, 6]: 13 ng·h/mL
Cmax Mean [1, 6]: 2.632 ng/mL
disintegration of the compacted pellet (time) ([2]; phosphate buffer pH 7.4, 37°C, with sodium lauryl sulfate, also at 0.1% and 0.3% and without surfactant): ≤ 10 min
solid form transition under humidity ([3]; relative humidity higher than 50% for 12 to 48 hours): changes into the polymorphic form β
hygroscopicity [3]: hygroscopic
Structure (SMILES): CO[C@H]1/C=C/O[C@@]2(C)Oc3c(C)c(O)c4c(O)c(c5c(nc6cc(C)ccn65)c4c3C2=O)NC(=O)/C(C)=C\C=C\[C@H](C)[C@H](O)[C@@H](C)[C@@H](O)[C@@H](C)[C@H](OC(C)=O)[C@@H]1C [rifaximin α, rifaximin]
